In brackets after ≈: the same amount, converted by molar mass. Read-outs that look alike come from different tables or passages of the source.

The conditions of data set [1]: 8-week bedaquiline regimen in MDR-TB patients, Diacon et al. 2012; cited from earlier work.
A further data set has as its system M. bovis. The conditions noted are these: n=1; cited from earlier work.
The conditions of data set [2]: updated model from the present study; clarithromycin coadministration.
The nature of another data set: clinical. As to conditions: human, in vivo.
For data set [3] the following is noted: human, in vivo.
Another data set has as its system M. smegmatis. As to conditions: n=7; cited from earlier work.
The test system of another data set is M. kansasii. The conditions noted are these: n=1; cited from earlier work.
The conditions of data set [4]: in vivo; cited from earlier work.
The subject of the next data set is M. abscessus. As to conditions: cited from earlier work.
Data set [5] relates to other mycobacterial species. As to conditions: generally, other mycobacterial species incl. M. avium, M. abscessus, M. fortuitum, M. marinum; cited from earlier work.
The next data set deals with M. ulcerans. As to conditions: cited from earlier work.
For data set [6] the following is noted: in vivo; cited from earlier work. This is another data set of the same source.
For data set [7] the following is noted: human; cited from earlier work.
In another data set the test system is M. fortuitum. As to conditions: n=5; cited from earlier work.
Another data set concerns M. marinum. As to conditions: n=1; cited from earlier work.
Data set [8] concerns M. avium/M. intracellulare (MAC). The conditions noted are these: n=7; cited from earlier work.
A short description of data set [9]: Phase 1 crossover drug-drug interaction study, plasma pharmacokinetics in healthy adults. As to conditions: for time of peak of mean plasma concentration / pre-dose mean plasma concentration: Treatment B; for time of peak of mean plasma concentration: Day 5, in combination with bedaquiline; for pre-dose mean plasma concentration: Day 5 morning.
[10] abbreviates: Treatment B Day 5: bedaquiline 100 mg + clarithromycin 500 mg every 12 hours, n=16.

For the compound `CNCC[C@@](O)(c1cccc2ccccc12)[C@H](c1ccccc1)c1cc2cc(Br)ccc2nc1OC` [M2], the “mean terminal elimination half-life” value in data set [1] is listed as 159 days.
In the case of `COc1nc2ccc(Br)cc2cc1[C@@H](c1ccccc1)[C@@](O)(CCN(C)C)c1cccc2ccccc12` [Bedaquiline, (1R,2S)-1-(6-bromo-2-methoxyquinolin-3-yl)-4-(dimethylamino)-2-naphthalen-1-yl-1-phenylbutan-2-ol], the “Bedaquiline MIC Median” value with M. bovis is 3 ng/mL; with M. smegmatis, 7 ng/mL; in the data set with M. kansasii, 3 ng/mL; with M. abscessus (n=1) it was 250 ng/mL; in the data set with M. ulcerans (n=1), 500 ng/mL; in the data set on M. fortuitum, 10 ng/mL. The “Bedaquiline MIC Median” value with M. marinum was 3 ng/mL; in data set [8], 10 ng/mL. Further, the “Effect CLR on CL/F, Estimate (RSE, %)” value in data set [2] is −0.37 (11). In the data set “clinical” (100 mg, Cmax (mean)), this compound had a peak concentration (Cmax) of 1390 ng/mL. Further, the AUC(0-t) in “clinical” (AUC72 h (mean)) turned out to be 13900 ng·h/mL; in the data set “clinical” (AUC240 h (mean)), 17600 ng·h/mL. In addition, in the data set “clinical” (tmax (median)), the Tmax was 5 h. Further, the “AUC72h higher in Period 2 compared with Period 1” value in data set [3] is given as 5-6%. The “AUC240h higher in Period 2 compared with Period 1” value in [3] is 8-18%. Further, the “increase of AUC72h with clarithromycin co-administration” value in [3] stood at 12%. Moreover, the “increase of AUC240h (mean plasma exposure) with clarithromycin co-administration” value in data set [3] was determined as 14%. In data set [3], the “plasma concentration quantifiable until” value is 240 hours post-dose. Further, the “tmax (median)” value in data set [3] is given as 3.48 h. Also, in data set [3] (100 mg), the “Cmax (mean)” value is reported as 1287 ng/mL. In addition, the “Bedaquiline MIC range” value in the data set on M. smegmatis is 3 to 100 ng/mL; in the data set on M. fortuitum, 7 to 10 ng/mL; in data set [8] it was 7 to 10 ng/mL. Also, the “improvement of bioavailability when administered with food” value in [4] is reported as “approximately 2 fold”. Besides, the minimum inhibitory concentration (MIC) with M. abscessus (1 isolate of M. abscessus) was 250 ng/mL (≈ 0.45 µM); in the data set on M. ulcerans (1 isolate of M ulcerans), 500 ng/mL (≈ 0.9 µM). Further, the MICs in data set [5] is less than 0.1 µg/mL. Besides, the terminal elimination half-life in data set [6] was 5.5 months. The “time within which Cmax was reached after drug administration” value in data set [6] was 4 to 6 h. Moreover, the “Increase in CL for healthy volunteers or C202, Estimate” value in [7] is on record as 37.5%.
On to `CO[C@]1(C)C[C@@H](C)C(=O)[C@H](C)[C@@H](O)[C@](C)(O)[C@@H](C(C)O)OC(=O)[C@H](C)[C@@H](O[C@H]2C[C@@](C)(OC)[C@@H](O)[C@H](C)O2)[C@H](C)[C@H]1O[C@@H]1O[C@H](C)C[C@H](N(C)C)[C@H]1O` (stereo partly drawn) [14-OH-Clarithromycin, 14-OH-clarithromycin], for which, in data set [9] (setting [10]), the “AUC12 h (mean)” value worked out at 10849 ng·h/mL, the “Cmax (mean)” value is recorded as 1,152 ng/mL, the “Cmin (mean)” value came out at 636 ng/mL and the “tmax (median)” value is recorded as 2.00 h. Further, in [9], the “time of peak of mean plasma concentration” value is listed as 3 hours post-dose and the “pre-dose mean plasma concentration” value worked out at 797 ng/mL.
With `CC[C@H]1OC(=O)[C@H](C)[C@@H](O[C@H]2C[C@@](C)(OC)[C@@H](O)[C@H](C)O2)[C@H](C)[C@@H](O[C@@H]2O[C@H](C)C[C@H](N(C)C)[C@H]2O)[C@](C)(OC)C[C@@H](C)C(=O)[C@H](C)[C@@H](O)[C@]1(C)O` [Clarithromycin, clarithromycin, reference compound], in [9], the “time of peak of mean plasma concentration” value came out at 3 hours post-dose and the “pre-dose mean plasma concentration” value is recorded as 1,281 ng/mL. For the same compound, the AUC(0-t) in data set [9] (human, plasma, oral, AUC12 h (mean), Treatment B Day 5: bedaquiline 100 mg + clarithromycin 500 mg every 12 hours, n=16) was found to be 22900 ng·h/mL. In data set [9] (human, plasma, oral, Cmax (mean), Treatment B Day 5: bedaquiline 100 mg + clarithromycin 500 mg every 12 hours, n=16), the Cmax stood at 2970 ng/mL. Besides, the Tmax in data set [9] (human, plasma, oral, tmax (median), Treatment B Day 5: bedaquiline 100 mg + clarithromycin 500 mg every 12 hours, n=16) came out at 3 h.

Broadly, the Cmax is the maximum level reached in the sampled fluid or tissue. One may read the AUC(0-t) as the area under the concentration-time curve up to a stated or last time point. As a reminder, the Tmax is the time from dosing to the highest level. The MIC is the least concentration at which growth counts as inhibited.

Values taken from US20230346770A1 (priority 2020, published 2023).
